PubChem BioAssay AID256 (DTP/NCI, 2004)
Where “and” joins values, the source holds several entries; their conditions need not be identical. Equal entries are not always repeated. Toxic doses and inconclusive results are not listed.

Test system: CD2F1 mice, L1210 leukemia ip, survival T/C
Experiment: NCI In Vivo Anticancer Drug Screen. Data for tumor model L1210 Leukemia (intraperitoneal) in CD2F1 (CDF1) mice
Conditions: higher = longer survival
How it was run: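 Vehicle-treated tumor-bearing mice served as controls (C) for compound-treated mice (T). Reported figure is T divided by C.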

[1] = endpoint: mean survival time, dose: 50.0 mg/kg/injection, schedule: Q01DX009 (ip), vehicle: Klucel (hydroxypropylcellulose) (HPC)
[2] = endpoint: mean survival time, dose: 100.0 mg/kg/injection, schedule: Q01DX009 (ip), vehicle: Klucel (hydroxypropylcellulose) (HPC)
[3] = endpoint: mean survival time, dose: 200.0 mg/kg/injection, schedule: Q01DX009 (ip), vehicle: Klucel (hydroxypropylcellulose) (HPC)
[4] = endpoint: mean survival time, dose: 100.0 mg/kg/injection, schedule: Q01DX001 (ip), vehicle: saline
[5] = endpoint: mean survival time, dose: 200.0 mg/kg/injection, schedule: Q01DX001 (ip), vehicle: saline
[6] = endpoint: mean survival time, dose: 400.0 mg/kg/injection, schedule: Q04DX003 (ip), vehicle: saline with Tween-80
[7] = endpoint: mean survival time, dose: 100.0 mg/kg/injection, schedule: Q04DX003 (ip), vehicle: saline with Tween-80
[8] = endpoint: mean survival time, dose: 200.0 mg/kg/injection, schedule: Q04DX003 (ip), vehicle: saline with Tween-80
[9] = endpoint: mean survival time, dose: 100.0 mg/kg/injection, schedule: Q01DX009 (ip), vehicle: saline with Tween-80
[10] = endpoint: mean survival time, dose: 200.0 mg/kg/injection, schedule: Q01DX009 (ip), vehicle: saline with Tween-80
[11] = endpoint: mean survival time, dose: 12.5 mg/kg/injection, schedule: Q01DX009 (ip), vehicle: Klucel (hydroxypropylcellulose) (HPC)
[12] = endpoint: mean survival time, dose: 25.0 mg/kg/injection, schedule: Q01DX009 (ip), vehicle: Klucel (hydroxypropylcellulose) (HPC)
[13] = endpoint: mean survival time, dose: 400.0 mg/kg/injection, schedule: Q01DX009 (ip), vehicle: saline with Tween-80

`C=C(C)CNC1=C(C)C(=O)C2=C(C1=O)[C@H](COC(N)=O)[C@]1(OC)[C@@H]3N[C@@H]3CN21` was tested, and the T/C (endpoint: mean survival time, dose: 1.5 mg/kg/injection, schedule: Q01DX001 (ip), vehicle: distilled water + Tween-80) was 119 % of control, the T/C (endpoint: mean survival time, dose: 3.0 mg/kg/injection, schedule: Q01DX001 (ip), vehicle: distilled water + Tween-80) was 117 % of control and the T/C (endpoint: mean survival time, dose: 12.0 mg/kg/injection, schedule: Q01DX001 (ip), vehicle: distilled water + Tween-80) was 101 % of control.
With `OC(Cc1nc2ccccc2[nH]1)c1nc2ccccc2[nH]1` (configuration not stated) the T/C [1] was 104 % of control, the T/C [2] was 97 % of control and the T/C [3] was 101 % of control.
In the case of `COc1cccc2c1C(=O)c1c(O)c3c(c(O)c1C2=O)C[C@@](O)(C(=O)COC(C)=O)C[C@@H]3OC1CC(N)C(O)C(C)O1` (some centres not stated), the T/C (endpoint: mean survival time, dose: 3.0 mg/kg/injection, schedule: Q01DX009 (ip), vehicle: saline) is reported as 156 % of control and the T/C (endpoint: mean survival time, dose: 3.0 mg/kg/injection, schedule: Q04DX003 (ip), vehicle: saline with Tween-80) is reported as 118 % of control.
`O=C(O)c1nn2c(=O)c3cccc4cccc(c43)c2c1C(=O)O` was tested, and the T/C (endpoint: mean survival time, dose: 25.0 mg/kg/injection, schedule: Q04DX002 (ip), vehicle: saline with Tween-80) was 95 % of control, the T/C (endpoint: mean survival time, dose: 50.0 mg/kg/injection, schedule: Q04DX002 (ip), vehicle: saline with Tween-80) was 98 % of control and the T/C (endpoint: mean survival time, dose: 100.0 mg/kg/injection, schedule: Q04DX002 (ip), vehicle: saline with Tween-80) was 95 % of control. The T/C (endpoint: mean survival time, dose: 200.0 mg/kg/injection, schedule: Q04DX002 (ip), vehicle: saline with Tween-80) was 95 % of control.
For `O=C(Nc1c(Oc2ccc(Cl)cc2Cl)ccc(Cl)c1S(=O)(=O)O)Nc1c(Oc2ccc(Cl)cc2Cl)ccc(Cl)c1S(=O)(=O)O`, the T/C [4] was 94 % of control and the T/C [5] was 93 % of control.
For `Nc1c2c(nn1-c1ccccc1)C(=O)N(CCc1ccccc1)C2`, the T/C [6] was 90 % of control.
In the case of `CC1CC[N-]CC1.CC1CC[N-]CC1.[Cl][Pt+2][Cl]`, the T/C (endpoint: mean survival time, dose: 6.25 mg/kg/injection, schedule: Q01DX001 (ip), vehicle: saline with Tween-80) is reported as 101 % of control, the T/C (endpoint: mean survival time, dose: 12.5 mg/kg/injection, schedule: Q01DX001 (ip), vehicle: saline with Tween-80) is reported as 111 % of control and the T/C (endpoint: mean survival time, dose: 25.0 mg/kg/injection, schedule: Q01DX001 (ip), vehicle: saline with Tween-80) is reported as 112 % of control.
`COc1ccc(/C=N\N2C(=O)/C(=C\c3ccc(OC)cc3)SC2=S)cc1` was tested, and the T/C [7] was 97 % of control, the T/C [8] was 93 % of control and the T/C [6] was 89 % of control.
For `Cc1cc(Br)c[nH]c1=O`, the T/C (endpoint: mean survival time, dose: 100.0 mg/kg/injection, schedule: Q01DX001 (ip), vehicle: saline with Tween-80) was 104 % of control, the T/C [9] was 94 % of control and the T/C (endpoint: mean survival time, dose: 200.0 mg/kg/injection, schedule: Q01DX001 (ip), vehicle: saline with Tween-80) was 108 % of control. For the same molecule, the T/C [10] was 100 % of control and the T/C (endpoint: mean survival time, dose: 400.0 mg/kg/injection, schedule: Q01DX001 (ip), vehicle: saline with Tween-80) was 104 % of control.
With `C[Si](C)(C)OSc1ccccc1[N+](=O)[O-]` the T/C [11] was 95 % of control, the T/C [12] was 97 % of control and the T/C [1] was 100 % of control. For the same molecule, the T/C [2] was 93 % of control, the T/C [3] was 92 % of control and the T/C (endpoint: mean survival time, dose: 400.0 mg/kg/injection, schedule: Q01DX009 (ip), vehicle: Klucel (hydroxypropylcellulose) (HPC)) was 91 % of control.
For `Cc1cc(NCCCCCCNc2cc(C)[n+](C)c3c(Cl)cccc23)c2cccc(Cl)c2[n+]1C`, the T/C [11] was 98 % of control, the T/C [12] was 98 % of control and the T/C [1] was 94 % of control.
For `CC(=O)C(C(=O)Nc1ccccc1)c1cc(NS(=O)(=O)c2ccccc2)ccc1O` (configuration not stated), the T/C [7] was 102 % of control, the T/C [8] was 96 % of control and the T/C [6] was 91 % of control.
With `Cc1cc(OCC(=O)O)ccc1Cl` the T/C [1] was 100 % of control, the T/C [2] was 104 % of control and the T/C [3] was 104 % of control.
For `Cc1ccc(NC(=O)C(Cl)(Cl)Cl)cc1[N+](=O)[O-]`, the T/C [7] was 102 % of control, the T/C [8] was 96 % of control and the T/C [6] was 98 % of control.
`CN1C(=O)C=C(C=Nc2ccc(-c3ccccc3)cc2)C2CCCCC21` (configuration not stated) was tested, and the T/C [7] was 106 % of control, the T/C [8] was 98 % of control and the T/C [6] was 97 % of control.
With `O=C1NC(O)CCN1C1OC(CO)C(O)C1O` (configuration not stated) the T/C (endpoint: median survival time, dose: 10.0 mg/kg/injection, schedule: Q01DX009 (ip), vehicle: saline) was 106 % of control and 107 % of control, the T/C (endpoint: median survival time, dose: 12.5 mg/kg/injection, schedule: Q01DX001 (oral), vehicle: saline) was 101 % of control and the T/C (endpoint: median survival time, dose: 21.88 mg/kg/injection, schedule: Q01DX009 (ip), vehicle: saline) was 102 % of control. The T/C (endpoint: median survival time, dose: 25.0 mg/kg/injection, schedule: Q01DX001 (oral), vehicle: saline) was 102 % of control, the T/C (endpoint: median survival time, dose: 30.0 mg/kg/injection, schedule: Q01DX009 (ip), vehicle: saline) was 104 % of control and the T/C (endpoint: median survival time, dose: 50.0 mg/kg/injection, schedule: Q01DX001 (oral), vehicle: saline) was 101 % of control. For the same molecule, the T/C (endpoint: median survival time, dose: 100.0 mg/kg/injection, schedule: Q01DX001 (oral), vehicle: saline) was 97 % of control, the T/C (endpoint: median survival time, dose: 100.0 mg/kg/injection, schedule: Q01DX009 (ip), vehicle: saline) was 105 % of control and the T/C (endpoint: median survival time, dose: 200.0 mg/kg/injection, schedule: Q01DX001 (oral), vehicle: saline) was 102 % of control. The T/C (endpoint: median survival time, dose: 300.0 mg/kg/injection, schedule: Q01DX009 (ip), vehicle: saline) was 106 % of control and the T/C (endpoint: median survival time, dose: 1000.0 mg/kg/injection, schedule: Q01DX009 (ip), vehicle: saline) was 100 % of control and 108 % of control.
With `Cc1cccc(SC(=O)Nc2ccc(Cl)cc2C)c1` the T/C [9] was 95 % of control and the T/C [10] was 95 % of control.
For `O=C(O)c1c2c(nc3ccccc13)-c1cccc3c1N(CCC3)C2`, the T/C (endpoint: mean survival time, dose: 6.25 mg/kg/injection, schedule: Q01DX009 (ip), vehicle: other) was 100 % of control, the T/C (endpoint: mean survival time, dose: 12.5 mg/kg/injection, schedule: Q01DX009 (ip), vehicle: other) was 103 % of control and the T/C (endpoint: mean survival time, dose: 25.0 mg/kg/injection, schedule: Q01DX009 (ip), vehicle: other) was 103 % of control. For the same molecule, the T/C (endpoint: mean survival time, dose: 50.0 mg/kg/injection, schedule: Q01DX009 (ip), vehicle: other) was 100 % of control, the T/C (endpoint: mean survival time, dose: 100.0 mg/kg/injection, schedule: Q01DX001 (ip), vehicle: other) was 100 % of control and the T/C (endpoint: mean survival time, dose: 200.0 mg/kg/injection, schedule: Q01DX001 (ip), vehicle: other) was 97 % of control. For the same molecule, the T/C (endpoint: mean survival time, dose: 400.0 mg/kg/injection, schedule: Q01DX001 (ip), vehicle: other) was 97 % of control.
In the case of `O=C(O)C(CO)C(CO)C(=O)O` (configuration not stated), the T/C (endpoint: mean survival time, dose: 50.0 mg/kg/injection, schedule: Q01DX001 (ip), vehicle: saline) is reported as 107 % of control, the T/C [4] is reported as 121 % of control and the T/C [5] is reported as 101 % of control. The T/C (endpoint: mean survival time, dose: 400.0 mg/kg/injection, schedule: Q01DX001 (ip), vehicle: saline) was 106 % of control.
With `CC1CC/C(=N/NC(N)=O)C1` (configuration not stated) the T/C (endpoint: mean survival time, dose: 50.0 mg/kg/injection, schedule: Q01DX001 (ip), vehicle: carboxymethylcellulose (CMC)) was 100 % of control, the T/C (endpoint: mean survival time, dose: 100.0 mg/kg/injection, schedule: Q01DX001 (ip), vehicle: carboxymethylcellulose (CMC)) was 94 % of control and the T/C (endpoint: mean survival time, dose: 200.0 mg/kg/injection, schedule: Q01DX001 (ip), vehicle: carboxymethylcellulose (CMC)) was 100 % of control. The T/C (endpoint: mean survival time, dose: 400.0 mg/kg/injection, schedule: Q01DX001 (ip), vehicle: carboxymethylcellulose (CMC)) was 100 % of control.
In the case of `NC(CO)CO`, the T/C (endpoint: mean survival time, dose: 100.0 mg/kg/injection, schedule: Q04DX003 (ip), vehicle: saline) is reported as 98 % of control, the T/C (endpoint: mean survival time, dose: 200.0 mg/kg/injection, schedule: Q04DX003 (ip), vehicle: saline) is reported as 95 % of control and the T/C (endpoint: mean survival time, dose: 400.0 mg/kg/injection, schedule: Q04DX003 (ip), vehicle: saline) is reported as 98 % of control.
For `CN(C)C=Nc1ccc([N+](=O)[O-])cc1`, the T/C [7] was 101 % of control, the T/C [8] was 101 % of control and the T/C [6] was 92 % of control.
`CNC(=O)Nc1nccs1` was tested, and the T/C (endpoint: mean survival time, dose: 50.0 mg/kg/injection, schedule: Q01DX009 (ip), vehicle: saline with Tween-80) was 105 % of control, the T/C [9] was 106 % of control and the T/C [10] was 97 % of control.
`O=c1[nH]cnc2nc(SCc3ccc([N+](=O)[O-])cc3)[nH]c12` was tested, and the T/C [1] was 90 % of control, the T/C [2] was 94 % of control and the T/C [3] was 105 % of control.
In the case of `CC(=O)OC1(C)CC(C)(C)N=[N+]1[O-]` (configuration not stated), the T/C [12] is reported as 96 % of control, the T/C [1] is reported as 101 % of control and the T/C [2] is reported as 101 % of control. The T/C [3] was 105 % of control.
With `Cc1ccc(-n2c(O)c(C=N)c(=O)[nH]c2=O)cc1` the T/C [7] was 101 % of control, the T/C [8] was 97 % of control and the T/C [6] was 103 % of control.
`O=C1C=C(Nc2ccc([N+](=O)[O-])cc2)c2ccccc2C1=O` was tested, and the T/C (endpoint: mean survival time, dose: 75.0 mg/kg/injection, schedule: Q01DX001 (ip), vehicle: saline) was 95 % of control and the T/C (endpoint: mean survival time, dose: 150.0 mg/kg/injection, schedule: Q01DX001 (ip), vehicle: saline) was 91 % of control.
For `COc1ccc(C(=O)c2ccccc2NC(C)=O)cc1`, the T/C [9] was 98 % of control, the T/C [10] was 101 % of control and the T/C [13] was 98 % of control.
For `O=C(O)CNCC(=O)O`, the T/C [9] was 93 % of control, the T/C [10] was 97 % of control and the T/C [13] was 98 % of control.
